This note sets out measurements from patent US11021455B2, “Brominated furanone derivative, method for preparing same, and pharmaceutical composition containing same as active ingredient” (SEOUL NATIONAL UNIVERSITY R&DB FOUNDATION, priority 2016, dated 2021).

Where two headings read alike, the source gives them in different places.

Data set [1] has as its system biofilms of F. nucleatum, givalis and T. forsythia. Briefly: Biofilm morphology, confocal scanning laser microscope technique. The class given is cell-based. To be noted: live/dead staining; FIG. 22. On the procedure: (§1) Particularly, a sterilized cover glass slip (round shape with a radius of 12 mm) was placed on each well of a cell culture plate (24 well plate) by using a pincette. F. nucleatum A1-2 was added to cell culture medium (BHI medium+supplements) at the volume of 10% by the total volume.
(§2) The compounds of examples of the present invention were diluted to make the final concentration of each compound of 2 μM, 0.2 μM and 0.02 μM (BH1 medium: Brain Heart Infusion Medium, supplements: hemin (10 μg/ml) and vitamin K (0.2 μg/ml)).
(§3) The prepared culture solution was added to each well of the plate where the glass slip was placed, and the desired number of bacteria was inoculated into each well (F. nucleatum: 2×10^7 cells/ml, P. gingivalis: 4×10^8 cells/ml, T. forsythia: 2×10^8 cells/ml).
(§4) The prepared well plate was incubated at 37° C. under anaerobic condition (10% H2, 10% CO2 and 80% N2) for 48 hours for the culture of bacteria. The biofilm formed on the glass slip by the bacteria cultured in each group was quantitatively and comparatively analyzed using the following techniques.
The glass slip whereon biofilm had been formed was stained by using a live/dead-BacLight bacterial viability kit (Invitrogen, Grand Island, N.Y., USA), and the morphology of the biofilm was observed under a confocal scanning laser microscope and compared.

The test system of a further data set is P. gingivalis biofilm. In words: Inhibition of biofilm formation, crystal violet staining (OD595). The class given is cell-based. To be noted: 2000 nM, 200 nM and 20 nM; FIG. 21. On the procedure: (§5) Particularly, a sterilized cover glass slip (round shape with a radius of 12 mm) was placed on each well of a cell culture plate (24 well plate) by using a pincette. F. nucleatum A1-2 was added to cell culture medium (BHI medium+supplements) at the volume of 10% by the total volume. The compounds of examples of the present invention were diluted to make the final concentration of each compound of 2 μM, 0.2 μM and 0.02 μM (BH1 medium: Brain Heart Infusion Medium, supplements: hemin (10 μg/ml) and vitamin K (0.2 μg/ml)). The prepared culture solution was added to each well of the plate where the glass slip was placed, and the desired number of bacteria was inoculated into each well (F. nucleatum: 2×10^7 cells/ml, P. gingivalis: 4×10^8 cells/ml, T. forsythia: 2×10^8 cells/ml). For the positive control not treated with the compounds of examples of the present invention (F.n AI-2), F. nucleatum AI-2 was added to the cell culture medium (BHI+supplements) and then the same number of cells was inoculated. In the meantime, for the negative control treated neither the compound of the present invention nor F. nucleatum A1-2 (Fn), PBS was added to the cell culture medium (BHI+supplements) instead of F. nucleatum A1-2 at the same volume as the above. The prepared well plate was incubated at 37° C. under anaerobic condition (10% H2, 10% CO2 and 80% N2) for 48 hours for the culture of bacteria. The biofilm formed on the glass slip by the bacteria cultured in each group was quantitatively and comparatively analyzed using the following techniques. […] 200 μl of the decolorizing solution containing crystal violet was added to each well of the microplate, and OD595 was measured using a microplate reader (Microplate reader, Model 550, Bio-Rad, USA). The measured values were compared among the groups (As the biofilm formation increased by the molecules secreted by F. nucleatum was suppressed by the compound of the present invention, the measured value was decreased.).

The next data set has as its system F. nucleatum biofilm. The description is as above. It counts as cell-based. To be noted: 20 nM; compared with furanone treated control group; FIG. 20. On the procedure:
as §5

For data set [2], the system named is biofilm formation of bacteria. In words: Evaluation of inhibition of biofilm formation (overall statements). It counts as cell-based. Particulars: FIG. 20 to FIG. 21; 2000 nM, 200 nM and 20 nM. On the procedure: as §1, §2, §3, §4
The glass slip whereon biofilm had been formed was stained with 1% crystal violet solution for 10 minutes, followed by washing with PBS (phosphate buffered saline) three times, and decolorized with acetone-alcohol.
200 μl of the decolorizing solution containing crystal violet was added to each well of the microplate, and OD595 was measured using a microplate reader (Microplate reader, Model 550, Bio-Rad, USA). The measured values were compared among the groups (As the biofilm formation increased by the molecules secreted by F. nucleatum was suppressed by the compound of the present invention, the measured value was decreased.).

The subject of data set [3] is IL-6 and IL-8 genes in THP-1 cells. Briefly: Effect on host cell immunity: IL-6 and IL-8 gene expression by real-time RT-PCR in THP-1 cells. It counts as cell-based, human. On the procedure:
(§6) To evaluate the effect of the compounds of the present invention on host cell (normal cell) immunity, the host cells were treated with the compounds of the present invention, followed by investigation of the activity of proinflammatory cytokines in host cells.
(§7) Particularly, in order to investigate whether or not the compounds of the present invention were able to induce inflammatory responses in host cells, the expression levels of proinflammatory cytokines including interleukin (IL)-6 and IL-8 were measured by real-time RT-PCR. THP-1 cells (1×10^6 cells/well) and HGF cells (2×10^5 cells/well) were distributed in a 6 well plate, followed by culture in the presence or absence of the compounds of examples (5, 6 and 13) or lipopolysaccharide (LPS, 1 mg) known as an endotoxin of Gram negative bacteria that causes a strong immune response in host cells at 37° C. for 24 hours. Upon completion of the 24 hour culture, RNA was extracted from the THP-1 and HGF cells by using Easy-Blue total RNA extraction kit (iNtRON Biotechnology, Seongnam, Korea) according to the manufacturer's protocol. A cDNA sample ([…]) synthesized from the extracted RNA ([…]) using MMLV reverse transcription kit (Promega, Madison, Wis.) was added to each primer pair (10 pM) and Power SYBR Green Master Mix (Applied Biosystems, Warrington, UK) at the reaction volume of […]. The mixture was applied to ABI PRISM 7500 Fast Real-Time PCR system (Applied Biosystems, Foster City, Calif., USA) by using thermocycling (thermocycling: denaturation at 95° C. for 15 seconds, annealing and extension at 60° C. for 1 minute). Glyceraldehyde 3-phosphate dehydrogenase (GAPDH) gene was used as a reference gene to normalize the gene expression levels of inflammatory cytokines including interleukin 6 (IL-6) and interleukin 8 (IL-8).
(In general: Real-time PCR tracks product formation cycle by cycle.)

Data set [4] concerns IL-6 and IL-8 genes in HGF cells. Briefly: Effect on host cell immunity: IL-6 and IL-8 gene expression by real-time RT-PCR in HGF cells. The class given is cell-based, human. On the procedure: as §6, §7

Take `O=C1OC(=C(Br)Br)c2ccccc21` [Example 2, 3-(dibromomethylene)isobenzofuran-1(3H)-one]: the “inhibition of biofilm formation seen in confocal photographs” value in data set [1] was “inhibited the biofilm formation of bacteria”.
For `O=C1OC(=C(Br)Br)C2=C1CCCC2` [Example 3, 3-(dibromomethylene)-4,5,6,7-tetrahydroisobenzofuran-1(3H)-one], the “P. gingivalis biofilm inhibitory activity (OD595)” value in the data set with P. gingivalis biofilm is “excellent P. gingivalis biofilm inhibitory activity”.
In the case of `O=C1OC(=C(Br)Br)C2=C1CCC2` [Example 4, 3-(dibromomethylene)-5,6-dihydro-3H-cyclopenta[c]furan-1(4H)-one], the “F. nucleatum biofilm inhibitory activity (OD595)” value with F. nucleatum biofilm is recorded as “superior F. nucleatum biofilm inhibitory activity at the concentration of 20 nM to the furanone treated control group”. In data set [1], the “inhibition of biofilm formation seen in confocal photographs” value is “inhibited the biofilm formation of bacteria”.
For the compound `O=C1OC(=C(Br)Br)C2CCCC12` (stereo not shown) [Example 5, 3-(dibromomethylene)-hexahydrocyclopenta[c]furan-1(3H)-one], in data set [2], the “biofilm inhibitory activity (general statement)” value is “particularly excellent in inhibiting biofilm formation”. The “induction of IL-6 and IL-8 gene expression (inflammatory response) in THP-1 cells” value (shortened to “induction … in THP-1 cells”) in data set [3] is “not to induce inflammatory responses”. The “induction of IL-6 and IL-8 gene expression (inflammatory response) in HGF cells” value (from here on “induction … in HGF cells”) in data set [4] (human, 24 h) was “did not induce the expressions of IL-6 and IL-8 genes”. In addition, in the data set with F. nucleatum biofilm, the “F. nucleatum biofilm inhibitory activity (OD595)” value was “superior F. nucleatum biofilm inhibitory activity at the concentration of 20 nM to the furanone treated control group”.
As for `Cc1ccc2c(c1)C(=C(Br)Br)OC2=O` [Example 6, 3-(dibromomethylene)-5-methylisobenzofuran-1(3H)-one], the “biofilm inhibitory activity (general statement)” value in data set [2] is “particularly excellent in inhibiting biofilm formation”. In data set [3], the “induction … in THP-1 cells” value was “not to induce inflammatory responses”. In addition, in data set [4] (human, 24 h), the “induction … in HGF cells” value is “did not induce the expressions of IL-6 and IL-8 genes”.
For the compound `Cc1cccc2c1C(=O)OC2=C(Br)Br` [Example 13, 3-(dibromomethylene)-7-methylisobenzofuran-1(3H)-one], the “biofilm inhibitory activity (general statement)” value in data set [2] is listed as “particularly excellent in inhibiting biofilm formation”. The “induction … in THP-1 cells” value in data set [3] was “not to induce inflammatory responses”. The “induction … in HGF cells” value in data set [4] (human, 24 h) was “did not induce the expressions of IL-6 and IL-8 genes”.
Consider “lipopolysaccharide [LPS, reference compound]”, for which the “induction … in THP-1 cells” value in data set [3] (24 hours, normalised to GAPDH, FIG. 26) is “induced the expressions of IL-6 and IL-8 genes”. Moreover, in data set [4] (24 hours, normalised to GAPDH, FIG. 27), the “induction … in HGF cells” value is “induced the expressions of both cytokines”.
